Read-outs that look alike come from different tables or passages of the source.
Legend:
KB-8-5 Epidermoid cells = settings: cited from earlier work
NSCLC: A549 cells = settings: A549, non-resistant; cited from earlier work
[1] = Pharmacokinetic profile of locally administered formulations vs i.v docetaxel (Example 11); format: in vivo, Sprague-Dawley female Rats
From the text: This study compared the pharmacokinetics profile of docetaxel sustained release composition according to several embodiments of the invention administered to rats. The systemic PK profile of docetaxel released from the local administered formulations was compared to the PK profile of docetaxel administered i.v.
Animals: 30 Sprague-Dawley female Rats weighing+/−200 gram
Experimental Design—three study groups (n=10) were included in this study. Animals were anesthetized and skin above the right hip was cut (1 cm long) and lifted, creating a SC pocket. By making this pocket, the underlying muscle was slightly injured, mimicking the situation of the resection of SC tumor graft in the rat model. Each animal received the treatment as detailed in Table 7. In Groups 1 and 2, Formulations VI and I respectively were administered in the SC pocket on top of the injured muscle. The skin was then sutured. In the i.v. treated group (Group 3), the administration of treatment was given once, immediately after wound closure. After administration, blood samples were collected in the designated time points. Each treatment group was divided to two subgroups (n=5/subgroup) and each subgroup was sampled at the different time points. Blood was collected at 0.5, 1, 2, 4, 8, 12, and 24 hours and at 2, 3, 4, 5, 6, 7, 14, 21, and 30 days post-administration. Clinical signs and animal weights were followed during the study. The concentration of the released docetaxel in the plasma samples was evaluated by a liquid chromatography tandem mass spectrometry (LC-MS/MS) method (lower limit of quantitation [LLOQ]=3 ng/mL). The results were used to determine the PK profile of docetaxel.

[2] = system: CT-26 subcutaneous colon carcinoma tumors; settings: for survival rate / tumor free animals: Day 39; for average tumor volume: after 39 days; for day animals started to gain weight: mouse, in vivo
From the text: In the current experiment, the efficacy of local treatment with extended-release formulations according to some embodiments of the invention was compared to systemic treatment with Docetaxel. For that, subcutaneous colon carcinoma tumors were established in female BALB/c mice (7-8 weeks old, weighing ±16-20 gram at study initiation) and after reaching a desired volume (400-600 mm^3), they were resected and ˜90% of their volume was removed followed by administration of the test items. The recurrence rate of the tumors was followed and compared to an untreated control group.
Animals were injected SC with 0.5 million CT-26 cells above the right hip. When the tumor reached the desired volume (400 mm^3) after ˜7 days, animals were divided to five groups, mice were anesthetized, and the tumors were resected. Group 1 was administered with 200 mg of formulation VI containing 1.3% docetaxel (2.6 mg/mouse) to the tumor bed and Group 2 was administered with 200 mg of formulation I containing 0.88% docetaxel ([…]) to the tumor bed. Groups 3 and 4 were treated by repeated i.v injections of docetaxel solution. Group 3 was administered with 20 mg/kg i.v followed by five i.v injections of 10 mg/kg, once every 4 days. Group 4 was administered with 30 mg/kg i.v followed by five IV injections of 15 mg/kg, once every 4 days. Group 5 served as a saline-treated control with ˜100 μL saline administered locally into the tumor bed. The skin incision was then closed using a sterile suture. Post-surgery, the animals were returned to their cages for recovery and observation. Tumor size, clinical signs, and body weights were followed for 39 days.

[3] = system: A549.EpoB40 non squamous cell lung carcinoma; settings: cited from earlier work
[4] = system: DLD-1 colorectal carcinoma cells; settings: cited from earlier work
[5] = system: HCT-15 colorectal carcinoma cells; settings: cited from earlier work
CT-26 cell line = settings: CT-26, resistant cell line; cited from earlier work
[6] = system: HCT-8 colorectal carcinoma cells; settings: cited from earlier work
CRC: HCT-116 cells = settings: HCT-116, non-resistant; cited from earlier work
KB-P-15 Epidermoid cells = settings: cited from earlier work
[7] = system: KB-PTX/099 Epidermoid cells; settings: cited from earlier work
KB-V-1 Epidermoid cells = settings: cited from earlier work
epidermoid KB-3-1 cells = settings: KB-3-1, non-resistant; cited from earlier work
KB-D-15 Epidermoid cells = settings: cited from earlier work
[8] = system: 9L GBM cell line tumor in the brain; test: Syngeneic 9L GBM intra-brain tumor survival (Example 10); format: in vivo, Fischer rats
Description: Seventy-five (75) animals were designated for this study. The animals were divided into nine groups as described in Table 6. Group 1 served as untreated control. Groups 2 and 3 served as positive controls and were treated with temozolomide (SOC chemotherapy treatment in GBM patients) by gavage in low (33.5 mg/kg) and high doses (50 mg/kg), respectively. Group 4 (n=10) was treated with Formulation II vehicle at the defect site in the same amount as the Formulation II high amount group. Groups 5-8 (n=10/group) were treated at the excision site Formulation II at 5, 10, 25, or 50 mg/defect site. At study initiation, an incision was made and the calvarium bone of all animals was exposed and 5 mm diameter defect was drilled in the calvarium bone. The dura was cut and the brain was exposed. Each animal was injected with 9L cells (10^5 cells/2 μL/animal) at a depth of ˜1 mm in the brain using a stereotaxic instrument. Following injection of the cells, the incision was sutured. Animals were returned to their cages to recover. Treatment (temozolomide or Formulation II) was set to start five days post cell injection. For Formulation II/Formulation II vehicle treatment, the brain defects in Groups 4-8 were reopened and test articles were administered on top of the site of injection, inside the defect at Day 5. The defects were sealed with bone wax. Animals were returned to their cages to recover. Survival, clinical signs, body weight, and evaluation of cognitive behavior were followed during the study.

LLC1 cell line tumors = test: Antitumor and anti-metastatic effect on resected LLC1 tumors (Example 13); format: in vivo; settings: 6 mg/kg IP twice a week
Description: The objective of this study was to assess the efficacy of the antitumor and anti-metastatic effect of different amounts of Formulation II on mouse syngeneic louis lung carcinoma (LLC1) cell line tumors in C57BL mice. The selected cell line (LLC1) is known to spontaneously form metastases in the lungs originating from a primary tumor.
Male C57BL mice, 7-8 weeks old, weighing 18-21 grams were designated for this study. LLC1 tumor cells were injected SC to the back of the mice. When the tumors reached a volume of about 400 mm^3 they were resected (at least 90% of the tumor volume was removed; average area of 0.7 cm^2). The animals were divided into 6 groups (n=10). Groups 1-4 were administered different amounts of Formulation II directly to the tumor bed. Untreated group (Group 5) served as negative control and systemically treated group (Group 6) served as positive control. Five (5) animals served as sham group, they were not injected with tumor cells but underwent the surgical procedure (Group 7). Following treatment, the surgical site was sewed and animals were returned to their cages for recovery. Animals that had tumors larger than 1500 mm^3 were humanly terminated. At termination the number of metastases in the lungs was counted in each animal.
The number of metastases was counted post termination/death. In some cases, the lungs condition didn't allow evaluation of metastases. were too decomposed and therefore the number of metastases in these lungs were not evaluated. The counting discriminated between small metastases (0.1-0.5 mm) and big metastases (>0.5 mm). In case of large number of metastases (>100), it was defined as too numerus to count (TNTC).

[9] = system: U87 human GBM cell line tumor xenograft; test: Resected U87 GBM xenograft, different amounts of Formulation II (Example 9); settings: 300 mg/kg intraperitoneal, four times, every 7 days
Description: This study was performed to assess the efficacy of the anti-tumor effect of different amounts of the sustained release compositions according to some exemplary embodiments of the invention on U87 human GBM cell line tumor xenograft in nude mice.
Mice were injected subcutaneously (SC) with 3 million U87 cells above the right hip. When the tumor reached the volume of about 400 mm^3 after about 9 days, animals were divided to six groups (n=10/group), the mice were anesthetized, and the tumors were resected. The tumor bed sizes were measured and documented. Groups 1, 2 and 3 were administered 20, 50, or 100 mg of formulation II; 0.87% docetaxel locally on the tumor bed, respectively. Group 4 was administered 100 mg of formulation II vehicle (excipients only without DTX) locally on the tumor bed. Group 5 served as a saline control in which ˜100 μL saline was administered locally into the tumor bed. Group 6 served as positive control and was treated with gemcitabine (300 mg/kg administered as an intraperitoneal injection, four times, every 7 days). The skin incision was then closed using a sterile suture. Post-surgery, the animals were returned to their cages for recovery and observation. Tumor size, clinical signs, and body weights were followed for 43 days.
After tumor resection, the area of the tumor bed was measured. […] The applications of Formulation II were calculated and normalized to amount per 1 cm^2 tumor bed area. The normalized application rates and docetaxel doses are detailed in Table 5.

[10] = iv; NDA 020449; cited from earlier work
[11] = female, Sprague-Dawley, rat, intravenous, plasma docetaxel, single i.v 10 mg/kg
[12] = female, Sprague-Dawley, rat, iv, plasma docetaxel, single i.v 10 mg/kg

CC(=O)O[C@@]12CO[C@@H]1C[C@H](O)[C@@]1(C)C(=O)[C@H](O)C3=C(C)[C@@H](OC(=O)[C@H](O)[C@@H](NC(=O)OC(C)(C)C)c4ccccc4)C[C@@](O)([C@@H](OC(=O)c4ccccc4)[C@H]21)C3(C)C [docetaxel]
IC50 (KB-8-5 Epidermoid cells): 0.0088 µM
IC50 (NSCLC: A549 cells): 0.0019 µM
Cmax of i.v relative to max exposure of Formulation VI ([1]; 881 vs. 80.4 ng/ml): more than 10 fold
AUC(0-t) [1, 11]: 2280 ng·h/mL
Cmax [1, 11]: 881 ng/mL
C0 [1, 12]: 881 ng/mL
Tmax [1, 12]: 0 h
half-life [1, 12]: 23.1 h
Tlast ([1]; plasma docetaxel, single i.v 10 mg/kg): 72 h
survival rate ([2]; i.v 10 mg/kg every 4 days): 50%
survival rate ([2]; i.v 15 mg/kg every 4 days): 63%
tumor free animals ([2]; i.v 20 mg/kg then five injections of 10 mg/kg every 4 days): 2/8
tumor free animals ([2]; i.v 30 mg/kg then five injections of 15 mg/kg every 4 days): 3/8
average tumor volume ([2]; i.v 10 mg/kg every 4 days): 955 mm^3
average tumor volume ([2]; i.v 15 mg/kg every 4 days): 485 mm^3
overall tumor free survival ([2]; day 39 post surgery, five cycles of systemic treatment): 25%
overall tumor recurrence ([2]; end of study, extensive systemic treatment): 75%
animals terminated early due to tumor volume that exceeded 1500 mm^3 ([2]; i.v 10 mg/kg every 4 days): 4
animals terminated early due to tumor volume that exceeded 1500 mm^3 ([2]; i.v 15 mg/kg every 4 days): 2
day animals started to gain weight ([2]; 10 mg/kg): 20 days
day animals started to gain weight ([2]; 15 mg/kg): 23 days
delayed tumor recurrence after tumor resection (first tumor related mortality) ([2]; systemic treatment arm): 9 days
IC50 [3]: 0.0285 µM
IC50 [4]: 0.0162 µM
IC50 [5]: 0.0541 µM
IC50 (CT-26 cell line): 0.26 µM
IC50 [6]: 3.07 µM
IC50 (CRC: HCT-116 cells): 0.0054 µM
IC50 (KB-P-15 Epidermoid cells): 0.0176 µM
IC50 [7]: 0.0088 µM
IC50 (KB-V-1 Epidermoid cells): 0.468 µM
IC50 (epidermoid KB-3-1 cells): 0.0011 µM
IC50 (KB-D-15 Epidermoid cells): 0.0682 µM

Cn1nnc2c(C(N)=O)ncn2c1=O [Temozolomide]
mean survival ([8]; 33.5 mg/kg PO daily for 5 days): 18.8 ± 2.7 days
mean survival ([8]; 50 mg/kg PO daily for 5 days): 21.8 ± 3.3 days
survival rate ([8]; day 23, 33.5 mg/kg, 5 treatment days): 0%

CC(=O)O[C@H]1C(=O)[C@@]2(C)[C@H]([C@H](OC(=O)c3ccccc3)[C@]3(O)C[C@H](OC(=O)[C@H](O)[C@@H](NC(=O)c4ccccc4)c4ccccc4)C(C)=C1C3(C)C)[C@]1(OC(C)=O)CO[C@@H]1C[C@@H]2O [taxel]
animals that had tumor (LLC1 cell line tumors): 4/10
average lung weight (LLC1 cell line tumors): 226 ± 114 mg
average tumor volume (LLC1 cell line tumors): 490 mm^3
average weight at termination lower than weight at t=0 (LLC1 cell line tumors): 4%
metastases free animals (lungs) (LLC1 cell line tumors): 5/10
animals early terminated due to tumor volume (LLC1 cell line tumors; day 23): One
animals found dead (LLC1 cell line tumors; day 25): one

CC(=O)O[C@H]1C(=O)[C@@]2(C)[C@H]([C@H](OC(=O)c3ccccc3)[C@]3(O)C[C@H](OC(=O)[C@H](O)[C@@H](NC(=O)c4ccccc4)c4ccccc4)C(C)=C1C3(C)C)[C@]1(OC(C)=O)CO[C@@H]1C[C@@H]2O [paclitaxel]
IC50 (KB-8-5 Epidermoid cells): 0.0702 µM
IC50 [3]: 0.128 µM
IC50 [4]: 0.0328 µM
IC50 [5]: 0.435 µM
IC50 [6]: 3.29 µM
IC50 (KB-P-15 Epidermoid cells): 0.117 µM
IC50 [7]: 0.0741 µM
IC50 (KB-V-1 Epidermoid cells): 3.2 µM
IC50 (KB-D-15 Epidermoid cells): 0.566 µM

Nc1ccn([C@@H]2O[C@H](CO)[C@@H](O)C2(F)F)c(=O)n1 [gemcitabine]
animals found dead [9]: 4
animals terminated due to tumor volume that exceeded 1500 mm^3 [9]: 4
survival rate ([9]; Day 43): 20%
tumor free animals ([9]; Day 43): 2/10
average tumor volume ([9]; after 43 days): 780 mm^3

CC(=O)O[C@@]12CO[C@@H]1C[C@H](O)[C@@]1(C)C(=O)[C@H](O)C3=C(C)[C@@H](OC(=O)[C@H](O)[C@@H](NC(=O)OC(C)(C)C)c4ccccc4)C[C@@](O)([C@@H](OC(=O)c4ccccc4)[C@H]21)C3(C)C [Taxotere]
maximal tolerated dose (MTD) and non-lethal dose (NLD) reported [10]: 10 mg/kg

Source: patent US20240050396A1, “COMPOSITIONS AND METHODS FOR THE TREATMENT OF SOLID TUMORS” (POLYPID LTD., priority 2020, published 2024)
